Measurements from the NIST ThermoML archive (doi:10.1021/acs.jced.6b00655).
Several values for one entry are separate records, joined by “and”; a condition that tells them apart may be missing. Identical values can stand only once. Numbers after ± are expanded uncertainties.

Experiments:
[1] = xn = mol fraction of the nth substance listed; details: 100 kPa, Liquid, Vibrating tube method
[2] = 100 kPa, Liquid, Vibrating tube method

Question: With `CCCC[N+]1(C)CCCC1.O=S(=O)([O-])C(F)(F)F` [1-butyl-1-methylpyrrolidinium trifluoromethanesulfonate] + Cc1ccccc1 as the molecule, how does the mass density ([1]; 283.15 K, x2 = 0) read?
Answer: Its mass density is 1263.17 ± 10 kg/m3.

Question: What about the mass density ([1]; 283.15 K, x2 = 0.052) of the same molecule?
Answer: The mass density was 1255.13 ± 10 kg/m3.

Question: And the mass density ([1]; 283.15 K, x2 = 0.102)?
Answer: The mass density was 1246.47 ± 10 kg/m3.

Question: And the mass density ([1]; 283.15 K, x2 = 0.221)?
Answer: The mass density was 1223.94 ± 10 kg/m3.

Question: What about the mass density ([1]; 283.15 K, x2 = 0.313) of the same molecule?
Answer: Its mass density is 1203.6 ± 10 kg/m3.

Question: And the mass density ([1]; 283.15 K, x2 = 0.4)?
Answer: The mass density was 1181.98 ± 10 kg/m3.

Question: And the mass density ([1]; 283.15 K, x2 = 0.516)?
Answer: The mass density was 1147.19 ± 10 kg/m3.

Question: What about the mass density ([1]; 283.15 K, x2 = 0.579) of the same molecule?
Answer: The mass density was 1124.97 ± 11 kg/m3.

Question: For `CCCC[N+]1(C)CCCC1.O=S(=O)([O-])C(F)(F)F` [1-butyl-1-methylpyrrolidinium trifluoromethanesulfonate] + Cc1ccc(C)cc1, which mass density ([1]; 283.15 K, x2 = 0) is on record?
Answer: Its mass density is 1263.17 ± 10 kg/m3.

Question: And the mass density ([1]; 283.15 K, x2 = 0.053)?
Answer: The mass density was 1249.16 ± 10 kg/m3.

Question: And the mass density ([1]; 283.15 K, x2 = 0.102)?
Answer: Its mass density is 1242.37 ± 10 kg/m3.

Question: What about the mass density ([1]; 283.15 K, x2 = 0.203) of the same molecule?
Answer: Its mass density is 1216.86 ± 10 kg/m3.

Question: And the mass density ([1]; 283.15 K, x2 = 0.306)?
Answer: The mass density was 1195.95 ± 10 kg/m3.

Question: And the mass density ([1]; 283.15 K, x2 = 0.361)?
Answer: The mass density was 1180.48 ± 10 kg/m3.

Question: And the mass density ([1]; 283.15 K, x2 = 0.415)?
Answer: Its mass density is 1164.5 ± 10 kg/m3.

Question: For `CCCC[N+](C)(C)C.O=S(=O)([N-]S(=O)(=O)C(F)(F)F)C(F)(F)F` [butyltrimethylammonium bis(trifluoromethylsulfonyl)imide], which mass density ([2]; 343.15 K) is on record?
Answer: The mass density was 1348.32 ± 10 kg/m3 and 1346.21 ± 10 kg/m3.

Question: For `CCCC[N+]1(C)CCCC1.O=S(=O)([N-]S(=O)(=O)C(F)(F)F)C(F)(F)F` + Cc1cccc(C)c1, which mass density ([1]; 283.15 K, x2 = 0) is on record?
Answer: Its mass density is 1410.45 ± 10 kg/m3.

Question: What about the mass density ([1]; 283.15 K, x2 = 0.206) of the same molecule?
Answer: Its mass density is 1361.63 ± 10 kg/m3.

Question: And the mass density ([1]; 283.15 K, x2 = 0.372)?
Answer: Its mass density is 1318.08 ± 11 kg/m3.

Question: And the mass density ([1]; 283.15 K, x2 = 0.491)?
Answer: The mass density was 1259.92 ± 11 kg/m3.

Question: And the mass density ([1]; 283.15 K, x2 = 0.616)?
Answer: Its mass density is 1191.7 ± 11 kg/m3.

Question: For `CCCC[N+]1(C)CCCC1.O=S(=O)([N-]S(=O)(=O)C(F)(F)F)C(F)(F)F`, which mass density ([2]; 283.15 K) is on record?
Answer: Its mass density is 1410.45 ± 10 kg/m3 and 1407.6 ± 10 kg/m3.

Question: Which mass density ([1]; 343.15 K, x2 = 0) does the source give for `CCCC[N+](C)(CCCC)CCCC.O=S(=O)([N-]S(=O)(=O)C(F)(F)F)C(F)(F)F` [tributylmethylammonium bis((trifluoromethyl)sulfonyl)imide] + Cc1cccc(C)c1 here?
Answer: The mass density was 1224.18 ± 10 kg/m3.

Question: And the mass density ([1]; 343.15 K, x2 = 0.148)?
Answer: Its mass density is 1203.79 ± 10 kg/m3.

Question: And the mass density ([1]; 343.15 K, x2 = 0.262)?
Answer: Its mass density is 1185.69 ± 10 kg/m3.

Question: And the mass density ([1]; 343.15 K, x2 = 0.363)?
Answer: Its mass density is 1165.61 ± 10 kg/m3.

Question: And the mass density ([1]; 343.15 K, x2 = 0.498)?
Answer: Its mass density is 1130.77 ± 10 kg/m3.

Question: What about the mass density ([1]; 343.15 K, x2 = 0.605) of the same molecule?
Answer: Its mass density is 1095.81 ± 11 kg/m3.

Question: What about the mass density ([1]; 343.15 K, x2 = 0.708) of the same molecule?
Answer: Its mass density is 1059.94 ± 11 kg/m3.

Question: With `CCCC[N+]1(C)CCCC1.O=S(=O)([N-]S(=O)(=O)C(F)(F)F)C(F)(F)F` + CCc1ccccc1 as the molecule, how does the mass density ([1]; 283.15 K, x2 = 0) read?
Answer: The mass density was 1410.45 ± 10 kg/m3.

Question: What about the mass density ([1]; 283.15 K, x2 = 0.312) of the same molecule?
Answer: The mass density was 1332.47 ± 10 kg/m3.

Question: What about the mass density ([1]; 283.15 K, x2 = 0.417) of the same molecule?
Answer: Its mass density is 1296.15 ± 11 kg/m3.

Question: What about the mass density ([1]; 283.15 K, x2 = 0.489) of the same molecule?
Answer: The mass density was 1268.45 ± 11 kg/m3.

Question: What about the mass density ([1]; 283.15 K, x2 = 0.636) of the same molecule?
Answer: The mass density was 1201.58 ± 11 kg/m3.

Question: Which mass density ([2]; 283.15 K) does the source give for `CCCC[N+]1(C)CCCC1.N#CN=C=[N-]` [1-butyl-1-methylpyrrolidinium dicyanamide] here?
Answer: The mass density was 1021.84 ± 10 kg/m3 and 1022.97 ± 10 kg/m3 and 1022.94 ± 10 kg/m3.

Question: For `CCCC[N+]1(C)CCCC1.O=S(=O)([O-])C(F)(F)F` [1-butyl-1-methylpyrrolidinium trifluoromethanesulfonate] + c1ccccc1, which mass density ([1]; 283.15 K, x2 = 0) is on record?
Answer: The mass density was 1263.28 ± 10 kg/m3.

Question: And the mass density ([1]; 283.15 K, x2 = 0.047)?
Answer: The mass density was 1257.62 ± 10 kg/m3.

Question: What about the mass density ([1]; 283.15 K, x2 = 0.095) of the same molecule?
Answer: The mass density was 1251.22 ± 10 kg/m3.

Question: What about the mass density ([1]; 283.15 K, x2 = 0.199) of the same molecule?
Answer: The mass density was 1235.63 ± 10 kg/m3.

Question: And the mass density ([1]; 283.15 K, x2 = 0.293)?
Answer: Its mass density is 1218.76 ± 10 kg/m3.

Question: What about the mass density ([1]; 283.15 K, x2 = 0.405) of the same molecule?
Answer: The mass density was 1195.65 ± 10 kg/m3.

Question: What about the mass density ([1]; 283.15 K, x2 = 0.503) of the same molecule?
Answer: Its mass density is 1170.77 ± 10 kg/m3.

Question: What about the mass density ([1]; 283.15 K, x2 = 0.601) of the same molecule?
Answer: The mass density was 1140.47 ± 10 kg/m3.

Question: What about the mass density ([1]; 283.15 K, x2 = 0.644) of the same molecule?
Answer: Its mass density is 1125.22 ± 11 kg/m3.

Question: What about the mass density ([1]; 283.15 K, x2 = 0.675) of the same molecule?
Answer: The mass density was 1112.49 ± 11 kg/m3.

Question: And the mass density ([1]; 283.15 K, x2 = 0.701)?
Answer: The mass density was 1101.39 ± 11 kg/m3.

Question: What about the mass density ([1]; 283.15 K, x2 = 0.718) of the same molecule?
Answer: Its mass density is 1093.71 ± 11 kg/m3.

Question: What about the mass density ([1]; 283.15 K, x2 = 0.738) of the same molecule?
Answer: The mass density was 1084.59 ± 11 kg/m3.

Question: With `CCCC[N+]1(C)CCCC1.O=S(=O)([O-])C(F)(F)F` [1-butyl-1-methylpyrrolidinium trifluoromethanesulfonate] + Cc1ccccc1C as the molecule, how does the mass density ([1]; 283.15 K, x2 = 0) read?
Answer: Its mass density is 1263.17 ± 10 kg/m3.

Question: What about the mass density ([1]; 283.15 K, x2 = 0.054) of the same molecule?
Answer: Its mass density is 1252.3 ± 10 kg/m3.

Question: What about the mass density ([1]; 283.15 K, x2 = 0.107) of the same molecule?
Answer: Its mass density is 1243.62 ± 10 kg/m3.

Question: And the mass density ([1]; 283.15 K, x2 = 0.19)?
Answer: The mass density was 1225.81 ± 10 kg/m3.

Question: What about the mass density ([1]; 283.15 K, x2 = 0.308) of the same molecule?
Answer: The mass density was 1197.9 ± 10 kg/m3.

Question: What about the mass density ([1]; 283.15 K, x2 = 0.399) of the same molecule?
Answer: Its mass density is 1174.56 ± 10 kg/m3.

Question: And the mass density ([1]; 283.15 K, x2 = 0.451)?
Answer: The mass density was 1160.97 ± 10 kg/m3.

Question: With `CCCC[N+]1(C)CCCC1.O=S(=O)([N-]S(=O)(=O)C(F)(F)F)C(F)(F)F` + Cc1ccccc1 as the molecule, how does the mass density ([1]; 283.15 K, x2 = 0) read?
Answer: Its mass density is 1407.6 ± 10 kg/m3.

Question: And the mass density ([1]; 283.15 K, x2 = 0.509)?
Answer: Its mass density is 1276.06 ± 11 kg/m3.

Question: What about the mass density ([1]; 283.15 K, x2 = 0.574) of the same molecule?
Answer: The mass density was 1250.95 ± 11 kg/m3.

Question: And the mass density ([1]; 283.15 K, x2 = 0.611)?
Answer: The mass density was 1228.59 ± 12 kg/m3.

Question: What about the mass density ([1]; 283.15 K, x2 = 0.73) of the same molecule?
Answer: The mass density was 1160.93 ± 12 kg/m3.
